Results: US10138510B2, “Dual labeling methods for measuring cellular proliferation” (LIFE TECHNOLOGIES CORPORATION, priority 2008, dated 2018)

What was measured:
Format in all cases: cell-based
[1] = system: newly synthesized DNA of cells; assay: Simultaneous EdU and BrdU pulse, incorporation into DNA detected by flow cytometry; conditions: for signal detected after simultaneous pulse: simultaneous pulse of EdU 20 μM and BrdU 10 μM, FIG. 3B
Description: FIG. 3A-1, FIG. 3A-2 and FIG. 3A-3 present a series of graphs showing populations of cells treated with a first pulse label of EdU (10 μm) and a second pulse label of BrdU (10 μm) as detected by flow cytometry. The first graph (FIG. 3A-1) is divided into four quadrants with the first quadrant (Q1) located in the upper left hand corner, the second quadrant (Q2) located in the upper right hand corner, the third quadrant (Q3) located in the lower left hand corner, and the fourth quadrant (Q4) located in the lower right hand corner. Populations of cells in quadrant Q3 (lower left) are negative for both EdU (first pulse) and BrdU (second pulse). Populations of cells in quadrant Q2 (upper right) are positive for both EdU (first pulse) and BrdU (second pulse). FIG. 3A-2 is a graph of EdU vs. DNA cell cycle with gating P5>P1. […] FIG. 3B presents a graph showing populations of cells treated with simultaneous pulse of EdU at a concentration of 20 μM and BrdU at a concentration of 10 μM as detected by flow cytometry. The graph is divided into four quadrants with the first quadrant (Q1) located in the upper left hand corner, the second quadrant (Q2) located in the upper right hand corner, the third quadrant (Q3) located in the lower left hand corner, and the fourth quadrant (Q4) located in the lower right hand corner. Populations of cells in quadrant Q3 (lower left) are negative for both EdU and BrdU. Populations of cells in quadrant Q2 (upper right) are positive for both EdU and BrdU.
FIG. 5A, FIG. 5B, FIG. 5C and FIG. 5D present a series of graphs showing that when cells are treated with EdU and BrdU simultaneously, only a population of DNA labeled with BrdU is detected by flow cytometry. […] The third and fourth graphs (FIGS. 5C and 5D, respectively) show the dual parameter plot of fluorescent nucleotide label vs. DNA cell cycle treated with EdU and BrdU simultaneously. Only BrdU was incorporated into cells treated simultaneously with EdU and BrdU, as shown in the third and fourth graphs. […]

[2] = system: Jurkat T-cell lymphocyte cells; assay: Dual pulse EdU/BrdU labeling of cellular proliferation after colchicine cell cycle block, flow cytometry
Procedure: A standard method of preparing cultured cells for the measurement of newly synthesized DNA (cellular proliferation) is set up according to known conditions for cells to be actively growing by providing the proper media and nutrient requirements. In the present example, Jurkat T-cell lymphocyte cell cultures were diluted one to four to a density of 2×10^5 cells/ml. The cultures were treated with a cell cycle blocking agent, colchicine, which stops proliferation at the G2M stage of the cell cycle, at concentrations of 0, 32 nM, 75 nM, 125 nM, 250 nM, 500 nM and 1 μM for 18 hours. To each condition, the first nucleoside analog, EdU, was then added at 10 μM, a concentration appropriate for incorporation in the DNA of cells undergoing DNA synthesis. The cells were grown in the presence of EdU for one hour. The cells were then centrifuged to pellet the cells and remove the media with blocking agent, and cells had replacement of fresh media. The cell cultures were allowed to recover for two hours before an appropriate amount of the second nucleoside analog, BrdU, was added at a 10 μM concentration, and the cells were grown for one hour. The cells were then harvested, washed, fixed with 70% ice-cold ETOH and stored at 4° C. until use. The cells were then washed and resuspended in 4M HCL for 20 minutes at room temperature. A phosphate/critric acid buffer was added, and the cells washed twice and resuspended in 0.1% TritonX/1% BSA/PBS at 1×10^7/ml. Then, labeling of the EdU was performed by adding click chemistry based reagents, including a solution comprised of CuSO4 in Tris-buffered saline and Alexa Fluor® 647-azide (650 nm excitation maxima/670 nm emission maxima) (Molecular Probes™/Invitrogen™, Carlsbad, Calif.). The cells were then washed with 0.1% TritonX/1% BSA/PBS. […]
A series of result graphs labeled FIGS. 12-1A, 12-1B, 12-1C, 12-1D, 12-1E, 12-2F, 12-2G, 12-2H, 12-2I and 12-2J show populations of cells treated with a first pulse label of EdU (20 μM) and a second pulse label of BrdU (10 μm) as detected by flow cytometry. […]

[3] = system: TF-1a human erythroblast cells; assay: Dual pulse EdU/BrdU labeling of cellular proliferation with varying GM-CSF, flow cytometry
Procedure: A standard method of preparing cultured cells for the measurement of newly synthesized DNA (cellular proliferation) is set up according to known conditions for cells to be actively growing by providing the proper media and nutrient requirements. In the present example, TF-1a human erythroblast cell cultures were diluted one to four to a density of 2×10^5 cells/ml. Culture media contains varying amounts of GM-CSF, or granulocyte-macrophage colony-stimulating factor, at amounts equal to full (2 ng/ml) or ¼ (0.5 ng/ml) recommended concentration of GM-CSF, and no GM-CSF. After these cells had been growing 18 hours, the first nucleoside analog, EdU, was added at 20 μM, a concentration appropriate for incorporation in the DNA of cells undergoing DNA synthesis. The cells were grown in the presence of EdU for three hours. After initial period of growth and without the removal of EdU through the washing of the cells in fresh media, an appropriate amount of the competitive nucleoside analog, BrdU, was added at a 10 μM concentration, and GM-CSF was added at the same time as the BrdU in amounts to equal the full amount recommended for GM-CSF concentration of 2 ng/ml or kept at the same initial concentration of GM-CSF. The cells were grown for six hours. The cells were then harvested, washed, fixed with 70% ice-cold ETOH and stored at 4° C. until use. The cells were then washed and resuspended in 4M HCL for 20 minutes at room temperature. A phosphate/critric acid buffer was added, and the cells washed twice and resuspended in 0.1% TritonX/1% BSA/PBS at 1×10^7/ml. Then, labeling of the EdU was performed by adding click chemistry based reagents, including a solution comprised of CuSO4 in Tris-buffered saline and Alexa Fluor® 647-azide (650 nm excitation maxima/670 nm emission maxima) (Molecular Probes™/Invitrogen™, Carlsbad, Calif.). The cells were then washed with 0.1% TritonX/1% BSA/PBS. After this, labeling of the BrdU was performed using the anti-BrdU antibody FITC conjugate (494 nm excitation maxima/518 nm emission maxima) (Exalpha Biologicals, Inc., Maynard Calif.). To detect DNA content, a nucleic acid dye, DAPI (358 nm excitation maxima/461 nm emission maxima) (Molecular Probes™/Invitrogen™, Carlsbad, Calif.) was added. Detection of the three labels was performed by flow cytometry. To detect the BrdU label, 488 nm excitation was used, with a 530/30 nm bandpass. To detect the EdU label, 633 nm excitation was used, with a 660/20 nm bandpass. To detect DNA content, 355 nm excitation was used, with a 450/50 nm bandpass.

[4] = GM-CSF 0.5 ng/ml with EdU pulse, 0.5 ng/ml with BrdU pulse
[5] = GM-CSF 0.5 ng/ml with EdU pulse, 2 ng/ml with BrdU pulse
[6] = GM-CSF 2 ng/ml (control) with EdU pulse, 2 ng/ml (control) with BrdU pulse, EdU 20 μM 3 h, BrdU 10 μM 6 h
[7] = no GM-CSF with EdU pulse, GM-CSF 2 ng/ml with BrdU pulse

O=c1[nH]c(=O)n([C@H]2C[C@H](O)[C@@H](CO)O2)cc1Br [BrdU, 5-bromo 2′-deoxyuridine]
incorporation into DNA in the presence of both nucleoside analogs ([1]; EdU and BrdU added simultaneously, Example 3, FIGS. 5A-5D): only the BrdU analog is incorporated into the DNA
signal detected after simultaneous pulse [1]: only positive signal detected from the BrdU

C#Cc1cn([C@H]2C[C@H](O)[C@@H](CO)O2)c(=O)[nH]c1=O [EdU, 5-ethynyl 2′-deoxyuridine]
signal detected after simultaneous pulse [1]: no signal detected

COc1cc2c(c(OC)c1OC)-c1ccc(OC)c(=O)cc1[C@@H](NC(C)=O)CC2 [colchicine]
proliferation (EdU and BrdU positive events) vs control ([2]; 32 nM colchicine for 18 hours before the first pulse, FIGS. 12-2F to 12-2J): decreased proliferation
proliferation with both pulses of EdU and BrdU ([2]; all colchicine concentrations (32 nM to 1 μM), 18 hours, FIG. 11): decreased proliferation
recovery of proliferation after removal of colchicine (second pulse of BrdU) ([2]; any colchicine concentration, two hours recovery in fresh media): no recovery

GM-CSF: granulocyte-macrophage colony-stimulating factor, growth factor in TF-1a culture media
proliferative recovery of cells ([3]; 0.5 ng/ml GM-CSF, addition of GM-CSF to 2 ng/ml with the BrdU pulse): does not show any proliferative recovery
% BrdU Pos [3, 4]: 66.3%
% EdU Pos [3, 4]: 57%
% BrdU Pos [3, 5]: 65.1%
% EdU Pos [3, 5]: 57.5%
% BrdU Pos [3, 6]: 72.2%
% EdU Pos [3, 6]: 53.9%
proliferation over control ([3]; dual pulse with 0.5 ng/ml GM-CSF vs 2 ng/ml control): only a slight decrease of proliferation over control
% BrdU Pos [3, 7]: 53%
% EdU Pos [3, 7]: 42.3%
proliferative recovery of cells (BrdU positivity) ([3]; no GM-CSF with EdU pulse, GM-CSF added with just the BrdU pulse): some proliferative recovery
